According to publication PMC10095824, “Design and Synthesis of 3-(β-D-Glucopyranosyl)-4-amino/4-guanidino Pyrazole Derivatives and Analysis of Their Glycogen Phosphorylase Inhibitory Potential” (Molecules, 2023):
Like-named read-outs stand apart in the source and are kept apart here.

Tests used:
[1] = biological target: T1, rabbit muscle glycogen phosphorylase b (rmGPb) (Oryctolagus cuniculus, UniProt P00489); assay: Glycogen phosphorylase binding assay (enzyme kinetics in the direction of glycogen synthesis); format: biochemical
T1 sequence (P00489 1-843): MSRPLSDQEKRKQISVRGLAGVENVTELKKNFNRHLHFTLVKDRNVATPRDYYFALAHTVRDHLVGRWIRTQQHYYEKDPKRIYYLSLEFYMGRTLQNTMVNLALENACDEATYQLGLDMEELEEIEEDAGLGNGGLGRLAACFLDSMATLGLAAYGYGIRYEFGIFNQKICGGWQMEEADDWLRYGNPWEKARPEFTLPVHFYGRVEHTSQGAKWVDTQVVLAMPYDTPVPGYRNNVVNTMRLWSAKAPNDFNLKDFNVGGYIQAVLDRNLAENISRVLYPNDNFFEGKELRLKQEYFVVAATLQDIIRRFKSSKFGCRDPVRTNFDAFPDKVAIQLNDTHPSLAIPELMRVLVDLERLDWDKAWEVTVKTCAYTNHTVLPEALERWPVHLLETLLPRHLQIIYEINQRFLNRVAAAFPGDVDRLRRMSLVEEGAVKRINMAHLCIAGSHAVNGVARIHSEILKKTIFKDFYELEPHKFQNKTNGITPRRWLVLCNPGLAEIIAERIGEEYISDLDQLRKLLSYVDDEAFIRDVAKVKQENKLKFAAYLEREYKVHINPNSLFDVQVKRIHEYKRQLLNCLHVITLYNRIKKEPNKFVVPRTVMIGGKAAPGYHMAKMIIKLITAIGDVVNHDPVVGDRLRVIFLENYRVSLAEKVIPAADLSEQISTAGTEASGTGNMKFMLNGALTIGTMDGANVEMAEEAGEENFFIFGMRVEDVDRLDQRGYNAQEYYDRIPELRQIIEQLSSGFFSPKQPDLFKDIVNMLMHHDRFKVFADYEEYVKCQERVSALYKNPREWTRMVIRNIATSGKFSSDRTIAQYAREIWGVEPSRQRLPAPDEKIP
Protocol: The determined IC50 values are shown in Table 1, together with the previously determined Ki value for benchmark compound 1. […] Towards understanding the observed potencies, extensive computations on the bound and unbound states of the ligands were performed.
Enzyme activity was assayed into the direction of glycogen synthesis as previously presented. Kinetic data were collected using the muscle phosphorylase b (dephosphorylated, GPb) isoform. Kinetic data for the inhibition of GPb by the compounds were obtained in the presence of 10 μg/mL enzyme, varying concentrations of α-D-glucose-1-phosphate (4–40 mM), constant concentration (1%) of glycogen and AMP (1 mM). Enzymatic activities were presented in the form of a double-reciprocal plot (Lineweaver-Burk). The plots were analysed by a non-linear data analysis program. The inhibitor constants (Ki) were determined by secondary plots, replotting the slopes from the Lineweaver-Burk plot against the inhibitor concentrations. The means of standard errors for all calculated kinetic parameters averaged to less than 10% [48, 49].

[2] = biological target: T1, rabbit muscle glycogen phosphorylase b (rmGPb); parameters: method as in PMID 26713107; settings: cited from earlier work

Nc1c([C@@H]2O[C@H](CO)[C@@H](O)[C@H](O)[C@H]2O)n[nH]c1-c1ccccc1 [Compound 3, 4-Amino-3-(β-D -glucopyranosyl)-5-phenyl-1H-pyrazole]
IC50 ([1]; rmGPb): 565 µM

OC[C@H]1O[C@@H](c2cc(-c3ccccc3)n[nH]2)[C@H](O)[C@@H](O)[C@@H]1O [Compound 2]
IC50 [2]: 850 µM

N=C(N)Nc1c([C@@H]2O[C@H](CO)[C@@H](O)[C@H](O)[C@H]2O)n[nH]c1-c1ccccc1 [Compound 4, 3-(β-D -Glucopyranosyl)-4-guanidino-5-phenyl-1H-pyrazole]
inhibition of rmGPb ([1]; at 625 µM concentration, 625 µM): no inhibition at 625 µM
